Measured values published in ChEMBL document CHEMBL5104126, “Discovery of 2,3-dihydro-1H-pyrrolo[3,4-b]quinolin-1-one derivatives as possible antileishmanial agents” (RSC Med Chem, 2022).

Tests used:
J774 [1] = experiment: Cytotoxicity against mouse macrophage J774 cells assessed as reduction in cell viability at 50 to 100 uM incubated for 72 hrs by MTT assay; assay type: toxicity, cell-based; settings: j774, 72 h, dose 50-100 µM
J774 [2] = experiment: Cytotoxicity against mouse macrophage J774 cells assessed as reduction in cell viability at 6.25 to 25 uM incubated for 72 hrs by MTT assay; assay type: toxicity, cell-based; settings: j774, 72 h, dose 6.25-25 µM
Leishmania donovani [3] = experiment: Antileishmanial activity against Leishmania donovani MHOM/IN/80/Dd8 promastigotes harboring luciferase gene infected in mouse J774 cells assessed as inhibition of parasite viability at 25 uM incubated for 72 hrs by Steady-Glo reagent based luciferase assay relative to control; assay type: functional; settings: MHOM/IN/80/Dd8, J774
Leishmania donovani [4] = experiment: Antileishmanial activity against Leishmania donovani MHOM/IN/80/Dd8 amastigotes harboring luciferase gene infected in mouse J774 cells assessed as inhibition of parasite viability at 25 uM incubated for 72 hrs by Steady-Glo reagent based luciferase assay relative to control; assay type: functional; settings: MHOM/IN/80/Dd8, J774
Leishmania donovani [5] = experiment: Antileishmanial activity against Leishmania donovani MHOM/IN/80/Dd8 amastigotes harboring luciferase gene infected in mouse J774 cells assessed as inhibition of parasite viability incubated for 72 hrs by Steady-Glo reagent based luciferase assay relative to control; assay type: functional, organism-based; settings: MHOM/IN/80/Dd8, J774, 72 h
Leishmania donovani [6] = experiment: Antileishmanial activity against Leishmania donovani MHOM/IN/80/Dd8 promastigotes harboring luciferase gene infected in mouse J774 cells assessed as inhibition of parasite viability incubated for 72 hrs by Steady-Glo reagent based luciferase assay relative to control; assay type: functional, organism-based; settings: MHOM/IN/80/Dd8, J774, 72 h
[7] = Cytotoxicity against mouse macrophage J774 cells assessed as inhibition of cell viability incubated for 72 hrs by MTT assay; assay type: toxicity, cell-based
[8] = Cytotoxicity against human HepG2 cells assessed as inhibition of cell viability incubated for 72 hrs by MTT assay; assay type: toxicity, cell-based
[9] = Selectivity index, ratio of CC50 for cytotoxicity against mouse macrophage J774 cells to IC50 for antileishmanial activity against Leishmania donovani MHOM/IN/80/Dd8 amastigotes harboring luciferase gene infected in mouse J774 cells; assay type: toxicity, cell-based; settings: read-out: Ratio CC50/IC50
[10] = Selectivity index, ratio of CC50 for cytotoxicity against human HepG2 cells to IC50 for antileishmanial activity against Leishmania donovani MHOM/IN/80/Dd8 amastigotes harboring luciferase gene infected in mouse J774 cells; assay type: toxicity, cell-based; settings: read-out: Ratio CC50/IC50
Leishmania donovani [11] = experiment: Antileishmanial activity against Leishmania donovani MHOM/IN/80/Dd8 promastigotes infected in Balb/c mouse assessed as inhibition organ parasite burden in liver at 25 mg/kg, ip for 7 days by Giemsa staining based microscopy; assay type: functional; settings: MHOM/IN/80/Dd8, 168 h, time 7 day
Leishmania donovani [12] = experiment: Antileishmanial activity against Leishmania donovani MHOM/IN/80/Dd8 promastigotes infected in Balb/c mouse assessed as inhibition organ parasite burden in spleen at 25 mg/kg, ip for 7 days by Giemsa staining based microscopy; assay type: functional; settings: MHOM/IN/80/Dd8, 168 h, time 7 day
Leishmania mexicana = experiment: Antileishmanial activity against Leishmania mexicana 227 assessed as inhibition of parasite viability; assay type: functional, organism-based

COc1ccc2nc3c(c(-c4ccccc4)c2c1)C1=NC(=O)C2(CCCCC2)N1C3
Activity (J774 [1]): >= 30%
Activity (J774 [2]): Non-Toxic
inhibition at 25 µM (Leishmania donovani [3]): 39%
inhibition at 25 µM (Leishmania donovani [4]): 31%

COc1ccc2nc3c(c(-c4ccccc4)c2c1)C(=O)N(C1(C(=O)NC(C)(C)C)CCCC1)C3
Activity (J774 [1]): >= 30%
Activity (J774 [2]): Non-Toxic
inhibition at 25 µM (Leishmania donovani [3]): 40%
inhibition at 25 µM (Leishmania donovani [4]): 45%

COc1ccc2nc3c(c(-c4ccccc4)c2c1)C1=NC(=O)C(c2ccc(Cl)cc2)N1C3 (stereo unspecified)
Activity (J774 [1]): >= 30%
Activity (J774 [2]): Non-Toxic
inhibition at 25 µM (Leishmania donovani [3]): 39%
inhibition at 25 µM (Leishmania donovani [4]): 31%

COc1ccc2nc3c(c(-c4ccccc4)c2c1)C1=NC(=O)C(C)(C)N1C3
Activity (J774 [1]): >= 30%
Activity (J774 [2]): Non-Toxic
inhibition at 25 µM (Leishmania donovani [3]): 39%
inhibition at 25 µM (Leishmania donovani [4]): 31%

CCCCCCCCCCCCCCCCOP(=O)([O-])OCC[N+](C)(C)C [MILTEFOSINE]
IC50 (Leishmania donovani [5]): 6.86 µM
IC50 (Leishmania donovani [6]): 6.12 µM
CC50 at 72 h [7]: 72.4 µM
CC50 at 72 h [8]: 78.6 µM
selectivity ratio [9]: 11.8
selectivity ratio [10]: 12.8
inhibition in vivo at 25 mg/kg (Leishmania donovani [11]): 97.4%
inhibition in vivo at 25 mg/kg (Leishmania donovani [12]): 98.9%

CC(C)(C)NC(=O)C(C)(C)N1Cc2nc3ccccc3c(-c3ccccc3)c2C1=O
Activity (J774 [1]): >= 30%
Activity (J774 [2]): Non-Toxic
inhibition at 25 µM (Leishmania donovani [3]): 40%
inhibition at 25 µM (Leishmania donovani [4]): 45%

COc1ccc2nc3c(c(-c4ccccc4)c2c1)C(=O)N(C(C(=O)NC(C)(C)C)c1cc(OC)c(OC)c(OC)c1)C3 (stereo unspecified)
Activity (J774 [1]): >= 30%
Activity (J774 [2]): Non-Toxic
inhibition at 25 µM (Leishmania donovani [3]): 40%
inhibition at 25 µM (Leishmania donovani [4]): 45%

CC1(C)C(=O)N=C2c3c(nc4ccc(Br)cc4c3-c3ccccc3)CN21
Activity (J774 [1]): >= 30%
Activity (J774 [2]): Non-Toxic
inhibition at 25 µM (Leishmania donovani [3]): 39%
inhibition at 25 µM (Leishmania donovani [4]): 31%

COc1ccc2nc3c(c(-c4ccccc4)c2c1)C(=O)N(CC(=O)NC(C)(C)C)C3
Activity (J774 [1]): >= 30%
Activity (J774 [2]): Non-Toxic
inhibition at 25 µM (Leishmania donovani [3]): 40%
inhibition at 25 µM (Leishmania donovani [4]): 45%
IC50 (Leishmania donovani [5]): 8.39 µM

COc1ccc2nc3c(c(-c4ccccc4)c2c1)C1=NC(=O)C(c2cc(OC)c(OC)c(OC)c2)N1C3 (stereo unspecified)
Activity (J774 [1]): >= 30%
Activity (J774 [2]): Non-Toxic
inhibition at 25 µM (Leishmania donovani [3]): 39%
inhibition at 25 µM (Leishmania donovani [4]): 31%

CC(C)(C(N)=O)N1Cc2nc3ccccc3c(-c3ccccc3)c2C1=O
Activity (J774 [1]): >= 30%
Activity (J774 [2]): Non-Toxic
inhibition at 25 µM (Leishmania donovani [3]): 61%
inhibition at 25 µM (Leishmania donovani [4]): 46%

COc1ccc(C(C(=O)NC(C)(C)C)N2Cc3nc4ccc(OC)cc4c(-c4ccccc4)c3C2=O)cc1 (stereo unspecified)
Activity (J774 [1]): >= 30%
Activity (J774 [2]): Non-Toxic
inhibition at 25 µM (Leishmania donovani [3]): 40%
inhibition at 25 µM (Leishmania donovani [4]): 45%

CC(C)(C)NC(=O)C(c1ccc(F)cc1)N1Cc2nc3ccc(O)cc3c(-c3ccccc3)c2C1=O (stereo unspecified)
Activity (J774 [1]): >= 30%
Activity (J774 [2]): Non-Toxic
inhibition at 25 µM (Leishmania donovani [3]): 72.7%
inhibition at 25 µM (Leishmania donovani [4]): 69%

COc1ccc2nc3c(c(-c4ccccc4)c2c1)C(=O)N(C(C(=O)NC(C)(C)C)c1ccc(C(F)(F)F)cc1)C3 (stereo unspecified)
Activity (J774 [1]): >= 30%
Activity (J774 [2]): Non-Toxic
inhibition at 25 µM (Leishmania donovani [3]): > 70%
inhibition at 25 µM (Leishmania donovani [4]): 45%

COc1ccc2nc3c(c(-c4ccccc4)c2c1)C(=O)N(C(C(=O)NC(C)(C)C)c1ccc(Cl)cc1)C3 (stereo unspecified)
Activity (J774 [1]): >= 30%
Activity (J774 [2]): Non-Toxic
inhibition at 25 µM (Leishmania donovani [3]): 40%
inhibition at 25 µM (Leishmania donovani [4]): 45%
IC50 (Leishmania donovani [5]): 10.5 µM

COc1ccc2nc3c(c(-c4ccccc4)c2c1)C(=O)N(C(C(N)=O)c1ccc(F)cc1)C3 (stereo unspecified)
Activity (J774 [1]): >= 30%
Activity (J774 [2]): Non-Toxic
inhibition at 25 µM (Leishmania donovani [3]): 61%
inhibition at 25 µM (Leishmania donovani [4]): 46%
IC50 (Leishmania donovani [5]): 8.75 µM

COc1ccc2nc3c(c(-c4ccccc4)c2c1)C(=O)N(C(C(=O)NC(C)(C)C)c1ccc(O)cc1)C3 (stereo unspecified)
Activity (J774 [1]): >= 30%
Activity (J774 [2]): Non-Toxic
inhibition at 25 µM (Leishmania donovani [3]): 40%
inhibition at 25 µM (Leishmania donovani [4]): 45%

COc1ccc2nc3c(c(-c4ccccc4)c2c1)C1=NC(=O)C2(CCCC2)N1C3
Activity (J774 [1]): >= 30%
Activity (J774 [2]): Non-Toxic
inhibition at 25 µM (Leishmania donovani [3]): 39%
inhibition at 25 µM (Leishmania donovani [4]): 31%

COc1ccc2nc3c(c(-c4ccccc4)c2c1)C(=O)N(C1(C(=O)NC(C)(C)C)CCCCC1)C3
Activity (J774 [1]): >= 30%
Activity (J774 [2]): Non-Toxic
inhibition at 25 µM (Leishmania donovani [3]): > 70%
inhibition at 25 µM (Leishmania donovani [4]): 45%
IC50 (Leishmania donovani [5]): 5.35 µM

COc1ccc2nc3c(c(-c4ccccc4)c2c1)C(=O)N(C(C)(C)C(=O)NC(C)(C)C)C3
Activity (J774 [1]): >= 30%
Activity (J774 [2]): Non-Toxic
inhibition at 25 µM (Leishmania donovani [3]): 40%
inhibition at 25 µM (Leishmania donovani [4]): 45%

COc1ccc2nc3c(c(C)c2c1)C(=O)N(C(C)(C)C(=O)NC(C)(C)C)C3
Activity (J774 [1]): >= 30%
Activity (J774 [2]): Non-Toxic
inhibition at 25 µM (Leishmania donovani [3]): > 70%
inhibition at 25 µM (Leishmania donovani [4]): 45%
IC50 (Leishmania donovani [5]): 7.42 µM

COc1ccc2nc3c(c(-c4ccccc4)c2c1)C(=O)N(C(C(=O)NC(C)(C)C)c1ccc(C#N)cc1)C3 (stereo unspecified)
Activity (J774 [1]): >= 30%
Activity (J774 [2]): Non-Toxic
inhibition at 25 µM (Leishmania donovani [3]): 40%
inhibition at 25 µM (Leishmania donovani [4]): 45%

COc1ccc2nc3c(c(-c4ccccc4)c2c1)C1=NC(=O)C(c2ccc(Br)cc2)N1C3 (stereo unspecified)
Activity (J774 [1]): >= 30%
Activity (J774 [2]): Non-Toxic
inhibition at 25 µM (Leishmania donovani [3]): 39%
inhibition at 25 µM (Leishmania donovani [4]): 31%

COc1ccc2nc3c(c(-c4ccccc4)c2c1)C(=O)N(C(C(=O)NC(C)(C)C)c1ccccc1)C3 (stereo unspecified)
Activity (J774 [1]): >= 30%
Activity (J774 [2]): Non-Toxic
inhibition at 25 µM (Leishmania donovani [3]): > 70%
inhibition at 25 µM (Leishmania donovani [4]): 45%

COc1ccc2nc3c(c(-c4ccccc4)c2c1)C1=NC(=O)C(c2ccccc2)N1C3 (stereo unspecified)
Activity (J774 [1]): >= 30%
Activity (J774 [2]): Non-Toxic
inhibition at 25 µM (Leishmania donovani [3]): 39%
inhibition at 25 µM (Leishmania donovani [4]): 31%

CC(C)(C)NC(=O)C(C)(C)N1Cc2nc3ccc(Br)cc3c(-c3ccccc3)c2C1=O
Activity (J774 [1]): >= 30%
Activity (J774 [2]): Non-Toxic
inhibition at 25 µM (Leishmania donovani [3]): > 70%
inhibition at 25 µM (Leishmania donovani [4]): 45%
IC50 (Leishmania donovani [5]): 10.3 µM

CC(C)(C)NC(=O)C(C)(C)N1Cc2nc3ccc(O)cc3c(-c3ccccc3)c2C1=O
Activity (J774 [1]): >= 30%
Activity (J774 [2]): Non-Toxic
inhibition at 25 µM (Leishmania donovani [3]): 77.2%
inhibition at 25 µM (Leishmania donovani [4]): 69%

COc1ccc2nc3c(c(-c4ccccc4)c2c1)C1=NC(=O)C(c2ccc(C#N)cc2)N1C3 (stereo unspecified)
Activity (J774 [1]): >= 30%
Activity (J774 [2]): Non-Toxic
inhibition at 25 µM (Leishmania donovani [3]): 39%
inhibition at 25 µM (Leishmania donovani [4]): 31%

CC(C)(C(N)=O)N1Cc2nc3ccc(Cl)cc3c(-c3ccccc3)c2C1=O
Activity (J774 [1]): >= 30%
Activity (J774 [2]): Non-Toxic
inhibition at 25 µM (Leishmania donovani [3]): 61%
inhibition at 25 µM (Leishmania donovani [4]): 46%

COc1ccc2nc3c(c(-c4ccccc4)c2c1)C(=O)N(C(C(=O)NC(C)(C)C)c1ccc(F)cc1)C3 (stereo unspecified)
Activity (J774 [1]): >= 30%
Activity (J774 [2]): Non-Toxic
inhibition at 25 µM (Leishmania donovani [3]): 40%
inhibition at 25 µM (Leishmania donovani [4]): 45%

CCCCCCOc1c(OC)cc(NC(C)CCCN)c2nccc(C)c12 (stereo unspecified) [WR-242511]
IC50 (Leishmania mexicana): 2.5 µM
